Experimental data reported in ChEMBL document CHEMBL1148132, “Abietane diterpenoids from Coleus xanthanthus” (J Nat Prod, 2002).
In brackets after ≈: the same amount, converted by molar mass.

system: K562; experiment: Cytotoxicity against human K562 cells after 48 hrs by MTT assay; assay type: functional, cell-based; details: K562, 48 h

| Compound | IC50 |
| --- | --- |
| CC(C)C1=C(O)C(=O)C2=C(C(=O)C(O)=C3C(C)(C)CCC[C@]23C)C1=O | 3 µg/mL (≈ 8.71 µM) |
| CC(=O)Oc1c(O)c(C(C)C)c(O)c2c1[C@@]1(C)CCCC(C)(C)C1=C(O)C2=O | 2.2 µg/mL (≈ 5.66 µM) |
| CC(C)C1=C(O)C(=O)[C@@]23O[C@@]2(C(=O)C(O)=C2C(C)(C)CCC[C@@]23C)C1=O | 13.9 µg/mL (≈ 38.6 µM) |
| O=C1c2c(O)ccc(O)c2C(=O)c2c(NCCNCCO)ccc(NCCNCCO)c21 [MITOXANTRONE] | 2 µg/mL (≈ 4.5 µM) |
| CC(C)C1=C(O)C(=O)C([C@@]2(C)CCCC(C)(C)C2=O)=C(C(=O)O)C1=O [XANTHANTHUSIN E] | 34.3 µg/mL (≈ 98.5 µM) |
| CC(=O)OCC(C)C1=C(OC(C)=O)C(=O)C2=C(C(=O)C(O)=C3C(C)(C)CCC[C@]23C)C1=O (stereo partly specified) [XANTHANTHUSIN H] | 12.9 µg/mL (≈ 29 µM) |
